Experiment [1] concerns Pr.mirabilis 140. Nature of the experiment: Minimal inhibitory concentration (MIC) by agar dilution on heart infusion agar. The format is cell-based. The following applies: Proteus mirabilis, HI-agar, one loopful of overnight culture in Trypticase-soy broth (10 viable cells per ml), 37°C for 20 hours. As to the method: (§1) Now in order to show the utility of the object compounds (I), test data on anti-microbial activity of representative compounds of the present invention are shown below.
(§2) One loopful of an overnight culture of each test strain in Trypticase-soy broth (10 viable cells per ml,) was streaked on heart infusion agar (HI-agar) containing graded concentrations of antibiotics, and the minimal inhibitory concentration (MIC) was expressed in terms of µg/ml after incubation at 37°C for 20 hours.

Experiment [2] concerns Pr.vulgaris IAM-1025. The experiment is described as above. Type of experiment: cell-based. The following applies: Proteus vulgaris, IAM1025, HI-agar, one loopful of overnight culture in Trypticase-soy broth (10 viable cells per ml), 37°C for 20 hours. The procedure:
as §1, §2

SMILES strings stand for the structures. In brackets after ≈: the same amount, converted by molar mass.

The results in this text go back to patent publication EP0062321A2, “New cephem compounds, processes for their preparation, pharmaceutical compositions containing them and their starting compounds” (FUJISAWA PHARMACEUTICAL CO., LTD., priority 1981, dated 1982).

With `CCO/N=C(\C(=O)NC1C(=O)N2C(C(=O)[O-])=C(C[n+]3cccn3C)CSC12)c1nsc(N)n1` (stereo not drawn) [(1)], the MIC in experiment [1] came out at 0.39 µg/mL (≈ 0.792 µM); in experiment [2] it was 0.78 µg/mL (≈ 1.58 µM).
For the compound `CCO/N=C(\C(=O)NC1C(=O)N2C(C(=O)[O-])=C(C[n+]3ccccn3)CSC12)c1nsc(N)n1` (stereo not drawn) [(2)], the minimum inhibitory concentration (MIC) in experiment [1] and in experiment [2] was 0.39 µg/mL (≈ 0.795 µM) in each case.
Take `CO/N=C(\C(=O)NC1C(=O)N2C(C(=O)[O-])=C(C[n+]3ccccn3)CSC12)c1nsc(N)n1` (stereo not drawn) [(3)]: the MIC in experiment [1] was 0.39 µg/mL (≈ 0.818 µM); in experiment [2], 6.25 µg/mL (≈ 13.1 µM).

Usually MIC stands for the least concentration at which growth counts as inhibited. Read a high MIC as a less susceptible organism.
